Experimental data reported in US9365833B2, “Leucine zipper variant and use thereof” (Samsung Electronics Co., Ltd., priority 2013, dated 2016).

Tested on: skin cancer cell line A-431
Assay: cancer cell growth inhibition (CellTiter-Glo cell viability)
Type: cell-based
Conditions: mutant p53 expression, up to 15 μM, 5 days; FIG. 11
Description: The leucine zipper variant p53LZ2 was evaluated for anticancer activity against the osteosarcoma cell line SJSA-1 (ATCC), the breast cancer cell line MCF7 (ATCC), and the skin cancer cell line A-431 (ATCC), the first two expressing wild-type p53 and the other expressing mutant p53.
Each of the cell lines was seeded at a density of 1×10^3 cells/well in 10% FBS-supplemented RPMI (Gibco) or DMEM (Gibco) into 96-well plates. The next day, the leucine zipper variant (TAT-p53LZ2; TAT (RKKRRQRRR; SEQ ID NO: 5) linked to the N-terminus of p53LZ2, constructed in Example 1) or Nutlin-3 (Sigma) was added at a concentration of 0, 0.59, 0.88, 1.32, 1.98, 2.96, 4.44, 6.67, 10, or 15 μM (increasing by 1.5 fold) in an amount of 100 μL to each well before the cells were cultured for 5 days at 37° C. in an 5% CO2 incubator. To each well was added 80 μL of CellTiter-Glo reagent (Promega), followed by measuring luminescence on EnVision Multilabel Reader (PerkinElmer) to examine cell viability.

For `COc1ccc(C2=N[C@@H](c3ccc(Cl)cc3)[C@@H](c3ccc(Cl)cc3)N2C(=O)N2CCNC(=O)C2)c(OC(C)C)c1` [Nutlin-3], the “cytotoxicity in A431 cell line” value was “failed to exert cytotoxicity”.
